ChEMBL document CHEMBL4145493, “Tetrahydroacridine derivatives with dichloronicotinic acid moiety as attractive, multipotent agents for Alzheimer's disease treatment” (Eur J Med Chem, 2018)
pIC50: −log10 of the molar value.

How the values were obtained:
[1] = target: Acetylcholinesterase (Electrophorus electricus, UniProt O42275); test: Inhibition of electric eel AChE using acetylthiocholine iodide as substrate after 10 mins by Ellman's method
[2] = target: Cholinesterase (Equus caballus, UniProt P81908); test: Inhibition of equine serum BuChE using acetylthiocholine iodide as substrate after 8 mins by Ellman's method
[3] = Cytotoxicity against human A549 cells assessed as cell viability at 2.3 uM after 48 hrs by MTT assay relative to control; type: cell-based; conditions: read-out: Activity
[4] = system: A549; test: Cytotoxicity against human A549 cells assessed as cell viability after 48 hrs by MTT assay; type: cell-based; conditions: A549, 48 h
[5] = target: Amyloid-beta precursor protein (Homo sapiens) (UniProt P05067); test: Inhibition of self-induced amyloid beta (1 to 42) (unknown origin) aggregation at 5 uM measured after 24 hrs by ThT fluorescence assay relative to control
[6] = target: Amyloid-beta precursor protein (Homo sapiens) (UniProt P05067); test: Inhibition of self-induced amyloid beta (1 to 42) (unknown origin) aggregation at 10 uM measured after 24 hrs by ThT fluorescence assay relative to control
[7] = target: Amyloid-beta precursor protein (Homo sapiens) (UniProt P05067); test: Inhibition of self-induced amyloid beta (1 to 42) (unknown origin) aggregation at 25 uM measured after 24 hrs by ThT fluorescence assay relative to control
[8] = target: Amyloid-beta precursor protein (Homo sapiens) (UniProt P05067); test: Inhibition of self-induced amyloid beta (1 to 42) (unknown origin) aggregation at 50 uM measured after 24 hrs by ThT fluorescence assay relative to control
[9] = Cytotoxicity against human A549 cells assessed as cell viability at 0.9 uM after 48 hrs by MTT assay relative to control; type: cell-based; conditions: read-out: Activity
[10] = target: T1, Hyaluronidase (Bos taurus, UniProt Q8SQG8+Q5E985); test: Inhibition of bovine testes hyaluronidase using hyaluronic acid as substrate preincubated for 10 mins in dark followed by incubation with substrate for 45 mins and subsequent addition of serum albumin measured after 10 mins by turbidimetric method; type: protein assay
T1 sequence (Q8SQG8 whole entry): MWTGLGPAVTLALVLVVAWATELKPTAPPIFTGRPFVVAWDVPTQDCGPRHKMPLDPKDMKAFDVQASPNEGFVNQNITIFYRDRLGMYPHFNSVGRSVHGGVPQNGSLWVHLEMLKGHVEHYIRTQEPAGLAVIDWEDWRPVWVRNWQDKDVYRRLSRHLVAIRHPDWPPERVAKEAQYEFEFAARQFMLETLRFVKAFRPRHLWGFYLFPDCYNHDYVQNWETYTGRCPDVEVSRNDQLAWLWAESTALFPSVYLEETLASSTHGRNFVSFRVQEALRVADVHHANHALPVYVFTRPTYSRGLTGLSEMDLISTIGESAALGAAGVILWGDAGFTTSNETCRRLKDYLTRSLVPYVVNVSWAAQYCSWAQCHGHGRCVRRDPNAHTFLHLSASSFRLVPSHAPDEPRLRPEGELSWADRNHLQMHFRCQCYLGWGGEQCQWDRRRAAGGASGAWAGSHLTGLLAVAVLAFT
T1 sequence (Q5E985 whole entry): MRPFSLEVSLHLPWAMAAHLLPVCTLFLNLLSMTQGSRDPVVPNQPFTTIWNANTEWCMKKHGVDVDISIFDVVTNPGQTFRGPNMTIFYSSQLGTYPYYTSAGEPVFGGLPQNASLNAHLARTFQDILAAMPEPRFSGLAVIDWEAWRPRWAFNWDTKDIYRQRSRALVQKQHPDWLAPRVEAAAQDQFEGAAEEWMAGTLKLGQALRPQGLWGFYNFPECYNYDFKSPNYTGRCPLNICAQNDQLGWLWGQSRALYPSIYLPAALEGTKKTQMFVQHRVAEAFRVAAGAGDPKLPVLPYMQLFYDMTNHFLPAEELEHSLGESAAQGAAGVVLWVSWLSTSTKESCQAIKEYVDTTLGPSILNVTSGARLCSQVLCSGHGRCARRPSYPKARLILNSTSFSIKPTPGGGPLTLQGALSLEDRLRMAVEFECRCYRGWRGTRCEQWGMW

[11] = system: AChE (electric eel); test: Selectivity index, ratio of IC50 for human A549 cells to IC50 for electric eel AChE; type: toxicity; conditions: read-out: Ratio IC50
[12] = system: BuChE (equine serum); test: Selectivity index, ratio of IC50 for human A549 cells to IC50 for equine serum BuChE; type: toxicity; conditions: read-out: Ratio IC50

Sequence of Cholinesterase (P81908 whole entry): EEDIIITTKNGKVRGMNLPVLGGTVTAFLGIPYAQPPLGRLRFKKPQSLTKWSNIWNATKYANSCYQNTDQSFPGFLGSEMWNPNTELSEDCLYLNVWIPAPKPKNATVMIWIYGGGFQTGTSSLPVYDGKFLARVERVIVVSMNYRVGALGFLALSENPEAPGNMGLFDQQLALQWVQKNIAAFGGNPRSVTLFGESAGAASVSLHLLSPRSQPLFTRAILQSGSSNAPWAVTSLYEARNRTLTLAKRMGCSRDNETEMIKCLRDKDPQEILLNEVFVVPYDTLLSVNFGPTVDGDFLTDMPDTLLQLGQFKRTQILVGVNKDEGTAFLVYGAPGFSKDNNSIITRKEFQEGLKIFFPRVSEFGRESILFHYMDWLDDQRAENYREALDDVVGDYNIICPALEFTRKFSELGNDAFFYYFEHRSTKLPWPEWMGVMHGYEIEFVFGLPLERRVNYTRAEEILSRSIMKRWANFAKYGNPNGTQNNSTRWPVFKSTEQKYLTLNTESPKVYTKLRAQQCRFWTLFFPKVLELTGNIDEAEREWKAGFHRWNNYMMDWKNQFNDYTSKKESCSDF
Sequence of Amyloid-beta precursor protein (Homo sapiens) (P05067 whole entry): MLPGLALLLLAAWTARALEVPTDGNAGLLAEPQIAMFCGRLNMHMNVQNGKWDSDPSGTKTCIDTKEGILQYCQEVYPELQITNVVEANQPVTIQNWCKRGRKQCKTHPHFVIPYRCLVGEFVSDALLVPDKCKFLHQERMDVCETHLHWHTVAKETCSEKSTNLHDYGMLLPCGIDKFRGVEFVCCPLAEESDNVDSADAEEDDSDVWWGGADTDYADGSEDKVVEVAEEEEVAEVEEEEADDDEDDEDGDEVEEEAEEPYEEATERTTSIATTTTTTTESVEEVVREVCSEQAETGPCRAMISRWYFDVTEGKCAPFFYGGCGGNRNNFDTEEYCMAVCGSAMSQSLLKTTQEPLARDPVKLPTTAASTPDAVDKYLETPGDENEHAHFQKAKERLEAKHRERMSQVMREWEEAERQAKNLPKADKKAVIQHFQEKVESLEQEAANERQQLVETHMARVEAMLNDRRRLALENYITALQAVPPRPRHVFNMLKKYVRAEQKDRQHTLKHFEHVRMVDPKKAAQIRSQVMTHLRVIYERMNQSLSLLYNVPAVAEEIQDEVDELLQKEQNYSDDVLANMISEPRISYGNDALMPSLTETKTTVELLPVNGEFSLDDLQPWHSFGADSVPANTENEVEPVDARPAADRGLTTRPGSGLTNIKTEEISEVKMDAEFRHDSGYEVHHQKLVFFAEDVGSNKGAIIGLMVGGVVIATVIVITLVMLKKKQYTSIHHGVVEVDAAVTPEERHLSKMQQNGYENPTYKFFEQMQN
Sequence of Acetylcholinesterase (O42275 whole entry): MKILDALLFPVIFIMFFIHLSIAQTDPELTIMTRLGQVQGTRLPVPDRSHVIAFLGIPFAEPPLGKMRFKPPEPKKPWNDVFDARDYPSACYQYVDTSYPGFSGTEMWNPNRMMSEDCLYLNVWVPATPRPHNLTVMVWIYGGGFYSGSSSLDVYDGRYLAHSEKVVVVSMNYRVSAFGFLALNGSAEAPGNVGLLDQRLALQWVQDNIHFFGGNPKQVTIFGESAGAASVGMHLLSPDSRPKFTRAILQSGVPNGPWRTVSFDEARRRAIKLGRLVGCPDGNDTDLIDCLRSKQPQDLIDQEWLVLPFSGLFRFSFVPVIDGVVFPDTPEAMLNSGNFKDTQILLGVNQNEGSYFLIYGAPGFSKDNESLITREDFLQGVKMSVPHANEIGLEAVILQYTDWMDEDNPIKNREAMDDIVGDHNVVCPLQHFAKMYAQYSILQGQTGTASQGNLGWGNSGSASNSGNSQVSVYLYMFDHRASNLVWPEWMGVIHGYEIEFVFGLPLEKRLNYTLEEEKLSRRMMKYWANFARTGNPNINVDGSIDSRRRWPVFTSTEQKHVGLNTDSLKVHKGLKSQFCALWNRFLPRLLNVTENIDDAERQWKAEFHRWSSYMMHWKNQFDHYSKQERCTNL

| SMILES | pIC50 [1] | pIC50 [2] | also measured |
| --- | --- | --- | --- |
| O=C(NCCCCCCCNc1c2c(nc3ccccc13)CCCC2)c1cnc(Cl)c(Cl)c1 | 7.91 | 7.94 | – |
| O=C(NCCCCNc1c2c(nc3ccccc13)CCCC2)c1cnc(Cl)c(Cl)c1 | 8.78 | 7.38 | – |
| O=C(NCCCCCCNc1c2c(nc3ccccc13)CCCC2)c1cnc(Cl)c(Cl)c1 | 8.38 | 7.89 | – |
| O=C(NCCCCCNc1c2c(nc3ccccc13)CCCC2)c1cnc(Cl)c(Cl)c1 | 8.54 | 7.87 | – |
| O=C(NCCCCCCCCCNc1c2c(nc3ccccc13)CCCC2)c1cnc(Cl)c(Cl)c1 | 8.51 | 8.48 | – |
| O=C(NCCCCCCCCNc1c2c(nc3ccccc13)CCCC2)c1cnc(Cl)c(Cl)c1 | 7.99 | 7.97 | – |
| O=C(NCCNc1c2c(nc3ccccc13)CCCC2)c1cnc(Cl)c(Cl)c1 | 7.78 | 6.14 | – |
| Cl.O=C(NCCCNc1c2c(nc3ccccc13)CCCC2)c1cnc(Cl)c(Cl)c1 | 8.99 | 6.80 | viability at 48 h, 2.3 µM [3]: 46%; pIC50 [4]: 5.70; inhibition [5]: 19.4%; inhibition [6]: 26.6%; inhibition [7]: 31.1%; inhibition [8]: 46.6%; viability at 48 h, 0.9 µM [9]: 82.3%; IC50 [10]: 465750 nM; selectivity ratio [11]: 1960; selectivity ratio [12]: 13 |
